Activity calls are given as the source filed them. No cut-off for these calls is given here.
What was measured:
KB = assay: Antiviral activity against Rhinovirus type 13 infected in human KB cells; assay type: functional, cell-based; settings: Human rhinovirus A13
Human alphaherpesvirus 1 = assay: Antiviral activity against Herpes simplex virus type 1 infected in human KB cells; assay type: functional, organism-based
Human respirovirus 3 = assay: Antiviral activity against Parainfluenza virus type 3 infected in human KB cells; assay type: functional, organism-based

NC(=O)c1ncn([C@@H]2O[C@H](CO)[C@@H](O)[C@H]2O)n1
Activity (KB): Active
Activity (Human alphaherpesvirus 1): Active
Activity (Human respirovirus 3): Active

NC(=O)c1ncn([C@@H]2S[C@H](CO)[C@@H](O)[C@H]2O)n1
Activity (Human alphaherpesvirus 1): Active
